Results published in publication PMC5263201, “GABAA receptor occupancy by subtype selective GABAAα2,3 modulators: PET studies in humans” (Psychopharmacology, 2016).

Key:
[1] = target: GABAA α1β2γ2; set-up: method as in Christian et al 2015; details: recombinant Sf9 membranes α1β2γ2; [3H]flunitrazepam; mean (SD); ref Christian et al 2015; read-out: Affinity in vitro at BZ binding site (Ki) α1; cited from earlier work
[2] = target: Melatonin MT2 (Homo sapiens, UniProt P49286); assay: Secondary receptor binding profile
Melatonin MT2, sequence (P49286 whole entry): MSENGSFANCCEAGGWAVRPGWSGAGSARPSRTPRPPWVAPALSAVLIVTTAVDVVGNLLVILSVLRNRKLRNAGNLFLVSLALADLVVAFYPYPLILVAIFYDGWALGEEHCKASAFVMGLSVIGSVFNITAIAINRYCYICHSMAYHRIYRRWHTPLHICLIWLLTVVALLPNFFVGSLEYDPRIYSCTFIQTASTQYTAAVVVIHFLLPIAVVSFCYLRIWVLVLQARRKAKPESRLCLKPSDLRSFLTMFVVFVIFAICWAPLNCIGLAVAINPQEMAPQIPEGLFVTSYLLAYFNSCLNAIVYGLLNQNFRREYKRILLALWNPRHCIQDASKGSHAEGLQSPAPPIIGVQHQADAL

[3] = system: GABAA α5β3γ2; set-up: method as in Christian et al 2015; details: 1µM test concentration, GABA EC10, % of 1 µM diazepam, mean ±SE, ref Christian et al 2015; cited from earlier work
[4] = system: generalized anxiety disorder; set-up: method as in Chen et al. 2014, ClinTrials.gov; details: ref Chen et al. 2014, ClinTrials.gov; cited from earlier work

| SMILES | Ki [1] | IC50 [2] | Relative efficacy (%DZ) α5 [3] | anxiolytic effect in patients with generalized anxiety disorder [4] |
| --- | --- | --- | --- | --- |
| CCCNC(=O)c1nnc2c(-c3cc(OC)ccc3OC)cccc2c1N [AZD6280] | 0.5 ± 0.2 nM | 664 nM | 8±2% | – |
| CCCNC(=O)c1nnc2c(-c3c(F)cccc3OC)cccc2c1N [AZD7325] | – | – | – | only a weak anxiolytic effect |
